Measured values as given in patent US20260297508A1, “MODULATORS OF PROTEIN SECRETION” (SANOFI, priority 2023, published 2026).

Columns and labels:
[1] = test system: RUSH antibody secretion, U2OS clone #7 cells; assay: ELISA on immobilized PD-L1: RUSH antibody titer in supernatant of treated clone #7 cells; type: cell-based, human; conditions: 50 μg/mL; for inhibition of antibody secretion, validation: summary; for suppression of antibody secretion compared with brefeldin A: 4 h compound, biotin 30 min, FIG. 7A
Experimental: (§1) FIGS. 7A and 7B show validation of inhibitors of protein secretion. […] Clone #7 cells were treated with the indicated compounds and supernatants were assayed for PD-L1 binding. Brefeldin A was used as a protein secretion inhibitor positive control. […] Hoechst 33324 fluorescence was measured, which enabled to number adherent living cells in each well.
U2OS clone #7 cells were seeded in 6-well plates and kept for 24 h at 37° C. in a humidified incubator with 5% CO2. The next day, the supernatants were removed, cells were rinsed with 37° C. pre-heated PBS and new medium containing the chemical treatment was added for 4 h. […] Then supernatants were collected and used for the ELISA assay as follows. MaxiSorp 96-well plates (Thermo Fisher Scientific) were coated with 0.5 μg/mL hFc-human-PD-L1 (R&D Systems, Minneapolis, MN) in PBS for 5.5 h at RT. Coating solution was then removed and 2% BSA/PBS blocking solution was added overnight at 4° C. The next day, wells were washed 3 times with 0.5% BSA/0.05% Tween-20/PBS solution. Supernatants were added after a ⅓ dilution in 0.5% BSA/0.05% Tween-20/PBS, for 2.3 h at RT. Wells were washed 3 times with 0.5% BSA/0.05% Tween-20/PBS solution. Anti-human kappa light chain HRP-coupled antibody was added diluted in 0.5% BSA/0.05% Tween-20/PBS at 1/4000^e for 2.3 h at RT. Wells were washed 3 times with 0.5% BSA/0.05% Tween-20/PBS solution before incubation with substrate reagents pack (R&D Systems) for 15 min in the dark. Fifty μL of STOP solution (R&D Systems) were then added to each well and the absorbance in each well was subsequently measured at 450 nm, and 635 nm for background subtraction, using a VICTOR™ X4 (PerkinElmer, Waltham, MA).
Medium- and high-throughput screenings often yield false positive and negative hits, calling for independent validation in low-throughput experiments with orthogonal technologies. In a first round of experiments, we evaluated the effects of shortlisted compounds with potential antibody secretion enhancer activity. Compounds identified in the screening campaigns were tested again on clone #7 at a low concentration (FIG. 6A) or a ten-fold higher concentration (FIG. 6B) for their ability to increase antibody secretion. […] We further characterized these hits in an PD-L1 binding ELISA.

[2] = test system: biotin-induced antibody release, U2OS clone #7 cells; assay: Low-throughput validation by imaging of the biotin-induced antibody release (cytoplasmic GFP), clone #7; type: cell-based, human; conditions: FIG. 5C
Experimental: FIGS. 5A-5C show selection of potential enhancers of protein secretion. FIGS. 5A and 5B) show dot plot representations of drugs efficiency based on their Z-scores measured at low and high drug concentration (FIG. 5A, Prestwick library; FIG. 5B, ICCB Known Bioactives and TargetMol Autophagy libraries). Compounds selected for further characterization are listed. (FIG. 5C) Clone #7 was treated with the indicated compounds, fixed and analyzed as described in FIG. 4A legend.
FIG. 6A-6C show validation of enhancers of protein secretion.
(§2) U2OS clone #7 cells were seeded in black 384-well imaging plates (Greiner bio one), 2,000 cells/well, and incubated for 24 h at 37° C. in a humidified incubator with 5% CO2. Cells were treated on the next day with the compounds from either the Prestwick library at […], the ICCB Known Bioactives library at 1/100^e or 1/1000^e, or the autophagy compound library at 10 μM or 1 μM for 4 h. […] Cells were then fixed as described above and processed for subsequent automated image acquisition using a robot-assisted IXM XL BioImager (Molecular Devices, Sunnyvale, CA, USA) equipped with a Sola light source (Lumencor, Beaverton, OR, USA), adapted excitation and emission filters (Semrock) a 16-bit monochrome sCMOS PCO.edge 5.5 camera (PCO, Kelheim, Germany). A 20× PlanAPO objective (Nikon, Tokyo, Japan) was used to acquire a minimum of 4 view fields in each well. […] Nuclei were first detected using Hoechst 33342 signal and used as a marker to detect cytoplasmic areas based on GFP signal, allowing for the evaluation of cytoplasmic GFP intensity. Data were thereafter extracted and statistically evaluated using R (https://www.r-project.org). […]
Medium- and high-throughput screenings often yield false positive and negative hits, calling for independent validation in low-throughput experiments with orthogonal technologies. In a first round of experiments, we evaluated the effects of shortlisted compounds with potential antibody secretion enhancer activity. […]

[3] = test system: biotin-induced antibody release, U2OS clone #7 cells; assay: High-throughput RUSH screen: biotin-induced cytoplasmic GFP signal decay (antibody release), U2OS clone #7; type: cell-based, human; conditions: for inhibition of the biotin-induced decrease of the GFP signal: 4 h compound, then 40 μM biotin 1 h, screening; for retention of the RUSH antibody in the cytoplasm: screening campaigns, summary
Experimental: FIGS. 4A-4C show the high-throughput screening of chemical compound libraries for the identification of modulators of protein secretion. […] U2OS clone #7 is plated in 384-well plates and incubated for 24 h before treatment with each compound of the Prestwick, ICCB Known Bioactives, or Autophagy Compound Library at 2 concentrations, low and high (with a 10-fold difference). […] The results of the Prestwick library screening at the low drug concentration are plotted. Brefeldin A was used as a positive control of the inhibition of secretion. The compounds causing a cytoplasmic GFP intensity below that observed for biotin-only treated cells are potential enhancers of protein secretion.
U2OS cells were transfected with the streptavidin-KDEL plasmid using Lipofectamine 2000 (Thermo Fisher Scientific) and selected in medium supplemented with G418 (400 μg/mL, Gibco-Invitrogen) for 2 weeks. Limiting dilution in 96-well plates was used for single cell isolation from the selected pool. Clones were amplified and selected based on streptavidin immunofluorescence. Clone #BD6 showing the highest streptavidin expression was further expanded in medium supplemented with G418 (200 μg/mL) and transfected with the anti-PD-L1 IgG RUSH plasmid using Lipofectamine 2000 and selected in medium supplemented with G418 (200 μg/mL) and hygromycin (100 μg/mL, Santa Cruz Biotechnology) for 2 weeks. Limiting dilution in 96-well plates was used for single cell isolation from clone #BD6-derived selected pool. Clones were amplified and selected based on GFP fluorescence and clone #7 was selected for further characterization and screening campaigns.
U2OS clone #7 cells were seeded in black 384-well imaging plates (Greiner bio one), 2,000 cells/well, and incubated for 24 h at 37° C. in a humidified incubator with 5% CO2. Cells were treated on the next day with the compounds from either the Prestwick library at […], the ICCB Known Bioactives library at 1/100^e or 1/1000^e, or the autophagy compound library at 10 μM or 1 μM for 4 h. […] Cells were then fixed as described above and processed for subsequent automated image acquisition using a robot-assisted IXM XL BioImager (Molecular Devices, Sunnyvale, CA, USA) equipped with a Sola light source (Lumencor, Beaverton, OR, USA), adapted excitation and emission filters (Semrock) a 16-bit monochrome sCMOS PCO.edge 5.5 camera (PCO, Kelheim, Germany). A 20× PlanAPO objective (Nikon, Tokyo, Japan) was used to acquire a minimum of 4 view fields in each well. The acquired images were processed using the open-access R software (https://www.r-project.org) with the help of freely available packages EBImage (available on the Bioconductor repository https://www.bioconductor.org), and RBioFormats (https://github.com/aoles/RBioFormats), and the custom packages MetaxpR (https://github.com/asauvat/MetaxpR) and MorphR (https://github.com/kroemerlab/MorphR). Nuclei were first detected using Hoechst 33342 signal and used as a marker to detect cytoplasmic areas based on GFP signal, allowing for the evaluation of cytoplasmic GFP intensity. Data were thereafter extracted and statistically evaluated using R (https://www.r-project.org). Data were normalized using negative and positive controls, reduced and transformed into a Z-score. The experiments were repeated manually at low scale with selected drugs to confirm their effects on secretion, in this second set of assays, U2OS clone #7 cells incubated with secretion inhibitors were fixed and stained with Hoechst as described above for imaging and viability determination based on cell counts.
We next sought to use clone #7 in screening campaigns for the identification of drugs capable of enhancing or inhibiting antibody secretion. […] Cell counting was facilitated by nuclear counterstaining with Hoechst 33324 in order to assess viability and distinguish drug effects on the secretion kinetics from direct cytotoxicity and select relevant drugs for further characterization. […]

NLRP3 = conditions: cited from earlier work
U2OS clone #7 cells = assay: Toxicity assay: Hoechst staining, number of adherent living cells; type: cell-based, human; conditions: 50 μg/mL; FIG. 7B
Experimental: as §1
as §2, with “Germany).” for “Germany). A 20× PlanAPO objective (Nikon, Tokyo, Japan) was used to acquire a minimum of 4 view fields in each well.”

eryptosis; apoptosis = conditions: cited from earlier work
TrKA = conditions: cited from earlier work
ErbB2 tyrosine kinase = conditions: ErbB2 vs EGFR; cited from earlier work
TrKC = conditions: cited from earlier work
TrKB = conditions: cited from earlier work
tyrosine kinase = tyrosine kinase inhibitor; cited from earlier work

Compound | inhibition of antibody secretion, validation [1] | suppression of antibody secretion compared with brefeldin A [1] | effect on secretion by cell imaging [2] | inhibition of the biotin-induced decrease of the GFP signal [3] | retention of the RUSH antibody in the cytoplasm [3] | NLRP3 activation, release of IL-1β (NLRP3) | cellular viability (U2OS clone #7 cells) | apoptosis (eryptosis; apoptosis) | eryptosis (eryptosis; apoptosis) | inhibition of TrKA phosphorylation (TrKA) | specificity to ErbB2 over EGFR (ErbB2 tyrosine kinase) | inhibitory effect on TrKC (TrKC) | inhibitory effect on TrKB (TrKB) | IC50 (tyrosine kinase)
CO[C@@H]1C[C@@H](C[C@H]2CC[C@H](C)[C@H]([C@@H](C)C(=O)O)O2)O[C@]2(O[C@](C)([C@H]3CC[C@@](C)([C@@H]4O[C@@H]([C@H]5O[C@@](O)(CO)[C@H](C)C[C@@H]5C)C[C@@H]4C)O3)C[C@H]2C)[C@@H]1C [nigericin] | confirmed as a secretion inhibitor | as potent as brefeldin A in suppressing antibody secretion | inhibitory effect | inhibited the biotin-induced cytoplasmic GFP signal decay | caused the retention of the RUSH antibody in the cytoplasm | leading to the release of IL-1β | without affecting cellular viability | triggers apoptosis | promote eryptosis |  |  |  |  | 
CC(C)(C)c1cc(/C=C(\C#N)C(N)=S)cc(C(C)(C)C)c1O [tyrphostin AG-879] | validated as an inhibitor of antibody secretion | as potent as brefeldin A in suppressing antibody secretion | inhibitory effect | inhibited the biotin-induced cytoplasmic GFP signal decay | caused the retention of the RUSH antibody in the cytoplasm |  | without affecting cellular viability |  |  | effectively inhibits TrKA phosphorylation | at least 500 fold | no inhibitory effect | no inhibitory effect | 10 µM
